Tests used:
Assay type in all cases: in vivo
[1] = Body weight change, bleomycin-induced IPF mice
Protocol: The six-week old mice are used in this experiment and divided into ten groups as follows. […] The six-week old male C57B1/6 mice are purchased from the National Laboratory Animal Center. […] After being […] pentobarbital in the dose of 0.52 mg/10 g, the mice is kept upright and positioned an otoscope into the larynx for looking into the trachea clearly. The bleomycin is loaded by a loading tip for intratracheal administration.

collagen = assay: Collagen amount, bleomycin-induced IPF mice; settings: for Fibrosis formation in lung tissue (collagen): day 28, p<0.01; for The amount of collagen: day 28 after BLM
Protocol: The amount of the collagen in the lung lavage is measured to reflect the fibrosis formation. […] (2) After the lung lavage is obtained, the chest of mice is opened and the lung lobes are cut one by one. […] The 1.5 ml eppendorffs are taken to arrange the calibration curve as follows. […] The eppendorff is then centrifuged at 12,000 rpm for 10 mins. The supernatant in the eppendorff is poured out slowly, 1 ml basic compound is added for dissolving the precipitation. After being violently shaken for 5 mins, the reaction is incubated for 3 hrs to stabilize the color. […] The amount of collagen is estimated through the 540 nm absorption measured by the ELISA reader.

MMP-2 [2] = assay: Gelatin zymography of lung lavage, bleomycin mice; settings: for MMP-2 expression in lung lavage (zymography): day 7 or day 28, p<0.05; for Expression of MMP2 in lung lavage: lung inflammatory stage
Protocol: (§1) The activities of MMP-2 (FIGS. 7A and 8A) and MMP-9 (FIGS. 7B and 8B) in the lung lavage of mice on day 7 (FIG. 7) and day 28 (FIG. 8) are analyzed by zymography. The expression levels are minor in the normal control group. […] The expressions of MMP-2 and MMP-9 on day 7 are higher than that on day 28. […] It is seen that KMUPs have the effect of mitigating the inflammation.
(§2) The MMPs in the lung lavaga are measured by zymography. It is known that all of the MMP-1, MMP-2, MMP-3, MMP-7 and MMP-9 can degrade the gelatin, especially the MMP-2 and MMP-9. The activity of collagenase can be analyzed by SDS-PAGE gel adding by gelatin. After the collected bronchoalveolar lavage fluid (BALF) is electrophoreted, the SDS is removed with 2.5% (v/v) Triton X-100 and the activity of collagenase is recovered to degrade the gelatin. After reacting for a period of time, the commassie blue is utilized for staining and destaining so that a transparent band in the area having the collagenase activity can be seen owing to the gelatin is degraded.
(§3) The BALF is collected and the concentration thereof is measured by Bio-Rad DC protein assay. The absorption of BALF at 595 nm wavelength is measured by an ELISA reader with a BSA standard, and the concentration of the sample is measured according to the standard curve of this absorption value.
(§4) The sample is mixed with non sample buffer. After reacting under temperature for 10 mins, the separating gel containing 0.1% gelatin is utilized for electrophoresis analysis under low temperature. While the electrophoresis is finished, the gel is immersed in 2.5% Triton X-100 buffer to react under temperature for half hour. The 2.5% Triton X-100 buffer is exchanged to react under temperature for additional half hour. The gel is immersed in the developing buffer at 37° C. for 24 hrs, stained with staining buffer for 1 hr and destained with the destaining buffer, and the transparent band can be seen.

MMP-9 [3] = assay: Gelatin zymography of lung lavage, bleomycin mice; settings: for MMP-9 expression in lung lavage (zymography): day 7 or day 28, p<0.05; for Expression of MMP-9 in lung lavage: lung inflammatory stage
Protocol: as §1, §2, §3, §4

MMP-2 [4] = assay: Western blotting of lung tissue, bleomycin mice; settings: increased by bleomycin; p<0.01
Protocol: (§5) The lung tissue is analyzed by western blotting, and the MMP-2 and MMP-9 protein expressions are shown in both of the FIGS. 9 and 10. In the lung tissue, the MMP-2 expression is more significant than MMP-9. KMUP-1 and KMUP-5 may mitigate the expressions of MMP-2 and MMP-9 increased by administrating the bleomycin (p<0.01).
(§6) (1) The mice lung is immersed in the tissue lysis buffer and homogenized by an ultrasound sonicator on ice.
(§7) (2) The lysate is centrifuged at 13,000 g under 4° C. for 30 mins. The supernatant is collected and the protein concentration measurement adopts the“Bio-Rad DC protein assay”. After diluting the protein as specific concentrations, the sample buffer being one fourth of the sample volume is added thereinto for heating at 100° C. for 5 mins, and the sample is loaded into each wells of SDS-PAGE gel in turn. The running buffer is added into the electrophoresis tank for electrophoresis at 100 V, the voltage is adjusted as 200 V when the protein runs to the lower gel, and the electrophoresis is stopped when the SDS-PAGE dye enters the SDS-PAGE.
(§8) (3) The PVDF membrane is rinsed ith transfer buffer for use, and the protein on the SDS-PAGE is transferred to the PVDF membrane. The SDS-PAGE layer covering on the PVDF membrane is placed in a protein transfer tank immersed with the transfer buffer with the current set at 100V. After 80 mins, the transfer is completed and then the PVDF membrane is taken out.
(§9) (4) after cutting the band having an appropriate molecular weight on the PVDF membrane, an appropriate amount of the blocking buffer is added to for blocking under room temperature to remove the non-specific binding. Then, evenly covering the diluted primary antibody on the PVDF membrane to react under room temperature for 2 hrs, and the excessive antibodies are removed by T-TBS. Further, evenly covering the diluted secondary antibody to react under room temperature for 1 hr and finally washing the excessive antibodies with T-TBS. The enhanced chemiluminescence (ECL) agent is added for reacting for 1-90 secs. After exposing to a x-ray film, the reaction is completed.

MMP-9 [5] = assay: Western blotting of lung tissue, bleomycin mice; settings: increased by bleomycin; p<0.01
Protocol: as §5, §6, §7, §8, §9

HMGB1 = HMGB1 expression, bleomycin mice; settings: lung inflammatory stage
Protocol: (§10) At day 28, it is observed that expression of eNOS is decreased, the expressions of TGF-β, Smad 3 and HMGB1 are increased and there is significant collagen accumulation in the tissue sections.
as §6, §7
as §8, with “out. […]” for “out.”

TGF-β = TGF-β expression by western blotting, bleomycin mice; settings: lung fibrotic stage
Protocol: as §10
(§11) The TGF-β (FIG. 12), CTGF (FIG. 13) and Smad3/p-Smad3 (FIG. 14) protein expressions in the lung tissue are analyzed by western blotting.
as §6, §7
(§12) (3) The PVDF membrane is rinsed ith transfer buffer for use, and the protein on the SDS-PAGE is transferred to the PVDF membrane. The SDS-PAGE layer covering on the PVDF membrane is placed in a protein transfer tank immersed with the transfer buffer with the current set at 100V. […]

Smad 3 = assay: Smad3 expression by western blotting, bleomycin mice; settings: lung fibrotic stage
Protocol: as §10, §11, §6, §7, §12

eNOS = eNOS expression by western blotting, bleomycin mice; settings: lung fibrotic stage
Protocol: as §10
The eNOS (FIG. 15), p-eNOS (FIG. 16) and iNOS (FIG. 17) protein expressions in the lung tissue are analyzed by western blotting. […] The KMUPs administration effectively increases the eNOS expression.
as §6, §7
(3) The PVDF membrane is rinsed ith transfer buffer for use, and the protein on the SDS-PAGE is transferred to the PVDF membrane. […]

[6] = Day 7, dose 2.5 mg/kg (Combination: 2.5 mg/kg each drug)
[7] = Day 14, dose 2.5 mg/kg (Combination: 2.5 mg/kg each drug)
[8] = Day 28, dose 2.5 mg/kg (Combination: 2.5 mg/kg each drug)
[9] = Day −3, dose 2.5 mg/kg (Combination: 2.5 mg/kg each drug)
[10] = dose 2.5 mg/kg (Combination: 2.5 mg/kg each drug)

| SMILES | Body weight [1, 6] [g] | Body weight [1, 7] [g] | Body weight [1, 8] [g] | Body weight [1, 9] [g] | Fibrosis formation in lung tissue (collagen) (collagen) | The amount of collagen (collagen; [10]) [μg/lung] | MMP-2 expression in lung lavage (zymography) (MMP-2 [2]) | Expression of MMP2 in lung lavage (MMP-2 [2]) | MMP-9 expression in lung lavage (zymography) (MMP-9 [3]) | Expression of MMP-9 in lung lavage (MMP-9 [3]) | MMP-2 protein expression in lung tissue (western blotting) (MMP-2 [4]) | MMP-9 protein expression in lung tissue (western blotting) (MMP-9 [5]) | Expression of HMGB1 (HMGB1) | Expression of TGF-β (TGF-β) | Expression of Smad 3 (Smad 3) | Expression of eNOS (eNOS) | other results |
| --- | --- | --- | --- | --- | --- | --- | --- | --- | --- | --- | --- | --- | --- | --- | --- | --- | --- |
| Cn1c(=O)c2c(ncn2CCN2CCN(c3ccccc3Cl)CC2)n(C)c1=O [KMUP-1, 7-[2-[4-(2-chlorobenzene)piperazinyl]ethyl]-1,3-dimethylxanthine] | 17.84 ± 1.72 | 19.11 ± 3.4 | 20.43 ± 2.8 | 23.06 ± 1.36 | reduce | 132.25 ± 5.95 | significantly decrease | efficiently decrease | significantly decrease | efficiently decrease | mitigate | mitigate | efficiently decrease | inhibit | inhibit | increase | Body weight ([1]; Day 7, dose 1 mg/kg): 19.80 ± 3.13 g; Body weight ([1]; Day 7, dose 5 mg/kg): 18.33 ± 1.3 g; Body weight ([1]; Day 14, dose 1 mg/kg): 20.48 ± 5.68 g; Body weight ([1]; Day 14, dose 5 mg/kg): 19.83 ± 2.3 g; Body weight ([1]; Day 28, dose 1 mg/kg): 21.90 ± 5.27 g; Body weight ([1]; Day 28, dose 5 mg/kg): 21.13 ± 2.5 g; Body weight ([1]; Day −3, dose 1 mg/kg): 24.12 ± 1.96 g; Body weight ([1]; Day −3, dose 5 mg/kg): 23.13 ± 1.42 g; The amount of collagen (collagen; dose 1 mg/kg): 165.16 ± 0.11 μg/lung; The amount of collagen (collagen; dose 5 mg/kg): 108.32 ± 6.05 μg/lung |
| CCC(C)(C)C(=O)O[C@H]1C[C@@H](C)C=C2C=C[C@H](C)[C@H](CC[C@@H](O)C[C@@H](O)CC(=O)O)[C@H]21.Cn1c(=O)c2c(ncn2CCN2CCN(c3ccccc3Cl)CC2)n(C)c1=O [KMUP-5] | 22.25 ± 2.36 | 23.15 ± 2.51 | 23.03 ± 2.74 | 23.87 ± 2.04 | reduce | 79.40 ± 0.02 | significantly decrease | efficiently decrease | significantly decrease | efficiently decrease | mitigate | mitigate | efficiently decrease | inhibit | inhibit | increase | Marasmus (body weight loss) ([1]; bleomycin mice): less significant |
